Data taken from the supplement of paper PMC11451515.

Columns and labels:
Conditions in all cases: 48 h
P12-Ichikawa [1] = test: cell viability relative to DMSO control; higher = less cytotoxic
In short: (§1)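 Cells were incubated for 48 h at 37°C before CellTiter-Glo One luminescence was read. The cells were NOMO1 or SEM (500 cells/well) or P12-Ichikawa (1000 cells/well) leukemia cells, adapted for at least four passages in each medium and seeded in 1536-well plates (5 μl). Dosing used library compounds in DMSO applied by pin over 11 threefold points, 47 μM to 0.79 nM. Viability is the per-plate percentage of DMSO wells, with cell-free wells as background.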

SEM cells = test: as above
In short: as §1

NOMO1 [2] = test: as above
In short: as §1

P12-Ichikawa [3] = test: AUC of viability dose-response curve (% viability x log10 dose units); higher = less sensitive
In short: (§2)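 Seeding of medium-adapted leukemia cells was at 500 or 1000 cells/well in 1536-well plates, followed by 48 h at 37°C with library compounds in DMSO at 11 threefold doses from 47 μM to 0.79 nM. CellTiter-Glo One luminescence was normalised per plate to DMSO and cell-free wells and fitted as a four-parameter log-logistic function of log10 dose. Area under the curve was integrated by trapezoidal rule, with curves exceeding full viability scaled and curves failing quality control removed.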

NOMO1 [4] = test: as above
In short: as §2

CNC[C@H](O)c1ccc(O)c(O)c1
cell viability [%]
Conditions	NOMO1 [2]	P12-Ichikawa [1]	SEM cells
HPLM + 10% dialyzed FBS, 0.000781 µM	112	96.9	90.5
HPLM + 10% dialyzed FBS, 0.00234 µM	95.6	101	85.8
HPLM + 10% dialyzed FBS, 0.00702 µM	104	94.8	71.9
HPLM + 10% dialyzed FBS, 0.0211 µM	104	94.6	73.9
HPLM + 10% dialyzed FBS, 0.0632 µM	96.9	102	77.3
HPLM + 10% dialyzed FBS, 0.19 µM	102	93.9	17.6
HPLM + 10% dialyzed FBS, 0.569 µM	88.1	90.2	63
HPLM + 10% dialyzed FBS, 1.71 µM	89.2	90.9	68.7
HPLM + 10% dialyzed FBS, 5.12 µM	86.3	91.7	61.3
HPLM + 10% dialyzed FBS, 15.4 µM	77.1	85.7	70.5
HPLM + 10% dialyzed FBS, 46.1 µM	73	85.8	53.1
RPMI 5 mM glucose + 10% FBS, 0.000781 µM	84.7	102	104
RPMI 5 mM glucose + 10% FBS, 0.00234 µM	89.8	97.3	97.3
RPMI 5 mM glucose + 10% FBS, 0.00702 µM	83	88.6	85.6
RPMI 5 mM glucose + 10% FBS, 0.0211 µM	87.6	99.3	73.1
RPMI 5 mM glucose + 10% FBS, 0.0632 µM	84.6	97.9	102
RPMI 5 mM glucose + 10% FBS, 0.19 µM	80.5	94.9	30.8
RPMI 5 mM glucose + 10% FBS, 0.569 µM	90.7	91.7	87.9
RPMI 5 mM glucose + 10% FBS, 1.71 µM	89.9	89.5	83.7
RPMI 5 mM glucose + 10% FBS, 5.12 µM	80	93.5	79.8
RPMI 5 mM glucose + 10% FBS, 15.4 µM	76.7	89.6	90.7
RPMI 5 mM glucose + 10% FBS, 46.1 µM	77.9	89.9	82.4
RPMI 5 mM glucose + 10% dialyzed FBS, 0.000781 µM	84.2	87.9	104
RPMI 5 mM glucose + 10% dialyzed FBS, 0.00234 µM	90.4	92.6	111
RPMI 5 mM glucose + 10% dialyzed FBS, 0.00702 µM	93.8	91	85.8
RPMI 5 mM glucose + 10% dialyzed FBS, 0.0211 µM	85.6	87.3	83.3
RPMI 5 mM glucose + 10% dialyzed FBS, 0.0632 µM	95.9	90.6	93.3
RPMI 5 mM glucose + 10% dialyzed FBS, 0.19 µM	91.3	92.3	28.2
RPMI 5 mM glucose + 10% dialyzed FBS, 0.569 µM	84.2	81.9	86.5
RPMI 5 mM glucose + 10% dialyzed FBS, 1.71 µM	75.5	85.1	95.3
RPMI 5 mM glucose + 10% dialyzed FBS, 5.12 µM	84.6	82	89.5
RPMI 5 mM glucose + 10% dialyzed FBS, 15.4 µM	76.5	78.9	82.1
RPMI 5 mM glucose + 10% dialyzed FBS, 46.1 µM	77.7	78.2	68.9

AUC of viability dose-response curve
Conditions	HPLM + 10% dialyzed FBS	RPMI 5 mM glucose + 10% FBS	RPMI 5 mM glucose + 10% dialyzed FBS
NOMO1 [4]	425	402	408
P12-Ichikawa [3]	446	448	412

O=c1[nH]c2ccccc2n1C1CCN(Cc2ccc(-c3nc4cc5nc[nH]c5cc4nc3-c3ccccc3)cc2)CC1
cell viability [%]
Conditions	NOMO1 [2]	P12-Ichikawa [1]	SEM cells
HPLM + 10% dialyzed FBS, 0.000781 µM	95.9	109	97.3
HPLM + 10% dialyzed FBS, 0.00234 µM	126	125	103
HPLM + 10% dialyzed FBS, 0.00702 µM	114	116	107
HPLM + 10% dialyzed FBS, 0.0211 µM	126	125	109
HPLM + 10% dialyzed FBS, 0.0632 µM	133	117	105
HPLM + 10% dialyzed FBS, 0.19 µM	130	132	103
HPLM + 10% dialyzed FBS, 0.569 µM	108	115	106
HPLM + 10% dialyzed FBS, 1.71 µM	97	102	64.6
HPLM + 10% dialyzed FBS, 5.12 µM	90.7	105	98.3
HPLM + 10% dialyzed FBS, 15.4 µM	103	109	88.6
HPLM + 10% dialyzed FBS, 46.1 µM	95.9	115	86.5
RPMI 5 mM glucose + 10% FBS, 0.000781 µM	101	111	69.5
RPMI 5 mM glucose + 10% FBS, 0.00234 µM	119	102	68.9
RPMI 5 mM glucose + 10% FBS, 0.00702 µM	108	110	79.1
RPMI 5 mM glucose + 10% FBS, 0.0211 µM	113	111	70.3
RPMI 5 mM glucose + 10% FBS, 0.0632 µM	123	115	75.1
RPMI 5 mM glucose + 10% FBS, 0.19 µM	113	114	77.7
RPMI 5 mM glucose + 10% FBS, 0.569 µM	115	106	73.2
RPMI 5 mM glucose + 10% FBS, 1.71 µM	107	85.4	37.9
RPMI 5 mM glucose + 10% FBS, 5.12 µM	111	104	60.3
RPMI 5 mM glucose + 10% FBS, 15.4 µM	121	109	60.2
RPMI 5 mM glucose + 10% FBS, 46.1 µM	118	106	46.4
RPMI 5 mM glucose + 10% dialyzed FBS, 0.000781 µM	98.8	121	89.6
RPMI 5 mM glucose + 10% dialyzed FBS, 0.00234 µM	104	114	101
RPMI 5 mM glucose + 10% dialyzed FBS, 0.00702 µM	109	114	109
RPMI 5 mM glucose + 10% dialyzed FBS, 0.0211 µM	105	121	106
RPMI 5 mM glucose + 10% dialyzed FBS, 0.0632 µM	116	114	103
RPMI 5 mM glucose + 10% dialyzed FBS, 0.19 µM	116	110	115
RPMI 5 mM glucose + 10% dialyzed FBS, 0.569 µM	103	105	94.6
RPMI 5 mM glucose + 10% dialyzed FBS, 1.71 µM	107	91.1	50.5
RPMI 5 mM glucose + 10% dialyzed FBS, 5.12 µM	97.9	103	98.9
RPMI 5 mM glucose + 10% dialyzed FBS, 15.4 µM	115	96	88.9
RPMI 5 mM glucose + 10% dialyzed FBS, 46.1 µM	102	107	70.9

AUC of viability dose-response curve
Conditions	HPLM + 10% dialyzed FBS	RPMI 5 mM glucose + 10% FBS	RPMI 5 mM glucose + 10% dialyzed FBS
NOMO1 [4]	439	463	474
P12-Ichikawa [3]	457	460	443
